The record followed here is patent publication EP4786454A1, “HETEROARYL DERIVATIVE AND USE THEREOF” (priority 2023, dated 2025).

One series has as its system MDR1-MDCK I cell line. The series is described as follows: Permeability evaluation, bidirectional transport (P-gp substrate). Type of series: in vitro ADME. The conditions noted are these: 2.00 µM, 90 minutes. Here is the method:
(§1) The purpose of this study was to evaluate and study the P-gp substrate of the compounds in MDR1 […] cells.
(§2) Transport assay: The test sample, nadolol, and metoprolol were administered at a concentration of 2.00 µM, and digoxin was administered at a concentration of 10.0 µM. The administration was performed bidirectionally (A-B and B-A directions), with two replicates for each administration concentration. The dosing solution, receiving solution, and transport buffer were pre-incubated in a 37.0 °C water bath for 30 minutes. The cell layer was rinsed twice with transport buffer. The dosing solution and receiving solution were added to the corresponding wells of the cell plate, respectively (75.0 µL to each apical well and 250 µL to each basolateral well, respectively). After the addition of samples, the cell plate was incubated in an incubator at 37.0°C, 5.0% CO2 and saturated humidity for 90 minutes. The initial dosing solution was used as the T0 sample. After 90 minutes of incubation, samples were collected from each well and labeled as A-B receiver, B-A receiver, A-B donor, and B-A donor, respectively. After the sample collection, all samples were mixed with an appropriate volume of transport buffer and stop solution. All samples were vortexed, and then centrifuged at 20.0 °C and 3220 × g for 10 minutes. An appropriate volume of the supernatant was transferred to a sample analysis plate. After sealing the plate, the samples were stored at 2.0 to 8.0 °C if not analyzed immediately. Analysis was performed using LC-MS/MS.
(§3) Cell membrane integrity assay: After the transport assay, the integrity of the MDR1-MDCK II cell layer was assayed by the Lucifer Yellow Rejection Assay. The remaining solution in the apical and basolateral wells was removed. 75.0 µL of transport buffer containing 100 µM Lucifer Yellow was added to the apical well, and 250 µL of transport buffer was added to the basolateral well, respectively. The cell plate was incubated in a cell culture incubator at 37 °C, 5% CO2 and saturated humidity for 30 minutes. Then, 20.0 µL of sample was taken from the apical end and mixed with 60.0 µL of transport buffer, and 80.0 µL of sample was taken from the basolateral end. The relative fluorescence unit (RFU) was measured at 425/528 nm (excitation/emission) using a microplate reader.
(§4) In this study, the sample analysis of the compounds and control compounds of nadolol, metoprolol, and digoxin was performed using LC-MS/MS. The retention time of the analytes and internal standards, chromatogram acquisition, and chromatogram integration were processed using the software Analyst (Sciex, Framingham, MA, USA). […] Semi-quantitative determination was performed using the ratio of the peak area of analyte to the peak area of internal standard.
(§5) The apparent permeability coefficient (Papp, cm/s), efflux ratio (ER), and recovery rate (%Solution Recovery) were calculated using the following formulas. Papp = (VR)/(Area × Time) × ([drug]receiver)/([drug]initial, donor) = (VR)/(Area × Time) × (CR)/(C0) [formula] Efflux Ratio = (Papp (B−A))/(Papp (A−B)) [formula] %Solution Recovery = (CR × VR + CD × VD)/(C0 × VD) × 100 [formula]
(§6) VR is the volume of the receiver solution (0.0750 mL for side A, and 0.250 mL for side B); Area is the surface area of the cell monolayer (0.143 cm^2); Time is the incubation time (5400 s); C0 is the initial peak area ratio of the test compound or the control compound at the donor; VD is the volume of the donor (0.0750 mL for side A, and 0.250 mL for side B); CD and CR are the peak area ratios of the test compound or the control compound at the donor and the receiver, respectively. The transmittance of Lucifer Yellow (%Lucifer Yellow) was calculated using the following formula: %Lucifer Yellow = (VBasolateral × RFUBasolateral)/(VApical × RFUApical + VBasolateral × RFUBasolateral) × 100 [formula]
(§7) RFUApical and RFUBasolateral are the relative fluorescence units of Lucifer Yellow at the apical and basolateral ends, respectively. […]

The next series deals with P-gp (MDR1). The series is described as above. Type of series: in vitro ADME. The conditions noted are these: dog, MDCK-MDR1; efflux ratio Papp (B-A)/Papp (A-B); read-out: HMDR1 ER. Here is the method: as §1, §2, §3, §4, §5, §6, §7
Series [1] is described as follows: Kinetic solubility in 50 mM phosphate buffer, LC-UV. Type of series: physicochemical. Particulars: room temperature, 24 hours. Here is the method: The purpose of this assay was to determine the kinetic solubility of the compounds after incubation at room temperature in a 50 mM phosphate buffer solution with a pH of 2.0, 6.5, and 7.4 for 24 hours using a direct ultraviolet method.
10 µL of DMSO stock solutions of a test compound and control compound were added to a 96-well plate. 490 µL of the test medium was added to the 96-well plate, respectively. The plate was sealed, and vortexed for 2 minutes. The incubation concentration of a sample was 200 µM, wherein, DMSO accounted for 2%. The 96-well plate was placed on a shaker, and incubated at room temperature and 800 rpm for 24 hours to reach dissolution equilibrium. After the incubation, the sample was put into a centrifuge, and centrifuged at 25 °C and 4000 rpm for 10 minutes. The supernatant from the centrifuged sample was transferred to a filter plate, centrifuged at 4000 rpm for 5 minutes, and filtered to give filtrate. The concentration of the filtrate was analyzed using linear quantitative analysis with LC-UV (the sample was diluted as needed).
Data of the assay were acquired and processed using Empower software. Linear regression analysis was performed by plotting the relationship between the peak area and their concentrations in µM.

As for `CC(C)(C)CC(=O)Nc1nc2c(F)cc(C#N)cn2c1-c1ccc(OC(F)(F)F)cc1` [Compound 1], in the series on MDR1-MDCK I cell line, the “HMDR1 Papp A to B” value is on record as 3.64 10^-6 cm/s and the “HMDR1 Papp B to A” value was 18.3 10^-6 cm/s. In the series on P-gp (MDR1), the efflux ratio at 90 min, 2 µM was determined as 5.04.

In the case of `CC(C)(C)CC(=O)Nc1nc2c(F)cc(C#N)cn2c1C1=CCCC1` [Compound 3], the KSY in series [1] (pH 2.0, 50 mM phosphate buffer) is 3.78 µg/mL; in series [1] (pH 6.5, 50 mM phosphate buffer), 3.68 µg/mL; in series [1] (pH 7.4, 50 mM phosphate buffer), 4.43 µg/mL. Moreover, the “HMDR1 Papp A to B” value in the series on MDR1-MDCK I cell line is given as 7.52 10^-6 cm/s. Also, the “HMDR1 Papp B to A” value with MDR1-MDCK I cell line was 31.2 10^-6 cm/s. Further, the efflux ratio with P-gp (MDR1) came to 4.15.

Regarding `CC(C)(C)CC(=O)Nc1nc2c(F)cc(C#N)cn2c1C12CC(C1)C2` [Compound 5], the KSY was determined as 4.46 µg/mL in series [1] (pH 2.0, 50 mM phosphate buffer); 4.57 µg/mL in series [1] (pH 6.5, 50 mM phosphate buffer); 4.79 µg/mL in series [1] (pH 7.4, 50 mM phosphate buffer). In addition, the “HMDR1 Papp A to B” value in the series with MDR1-MDCK I cell line is on record as 12.4 10^-6 cm/s. The “HMDR1 Papp B to A” value in the series with MDR1-MDCK I cell line is 42.4 10^-6 cm/s. In addition, the efflux ratio in the series with P-gp (MDR1) is 3.41.

As to `CC(C)(C)CC(=O)Nc1nc2c(C(F)(F)F)cc(C#N)cn2c1C12CC(C1)C2` [Compound 6], the KSY was 21.7 µg/mL in series [1] (pH 2.0, 50 mM phosphate buffer); 20.9 µg/mL in series [1] (pH 6.5, 50 mM phosphate buffer); 21.4 µg/mL in series [1] (pH 7.4, 50 mM phosphate buffer).
